Values quoted from earlier work in patent US20240299470A1, “METHODS OF PROBIOTIC TREATMENT TO IMPROVE HUMAN HEALTH” (SEED HEALTH INC., priority 2021, published 2024).

What was measured:
mice = conditions: NOD2-dependent but MyD88-independent
overweight individuals = conditions: delivered directly in the colon

| Molecule | protection from colitis (mice) | energy intake, adiposity, and lipid liver content (overweight individuals) | plasma levels of peptide YY (PYY) and glucagon-like peptide 1 (GLP-1) (overweight individuals) |
| --- | --- | --- | --- |
| M-tri-Lys | protected mice from colitis | – | – |
| CCC(=O)O [propionate] | – | reduced | increased |
